The values that follow come from US20090082285A1, “Adiponectin expression promoter” (SAN-EI GEN F.F.I., INC., priority 2003, published 2009).

The experiment relates to adiponectin mRNA in epididymis adipose cells. Put plainly: Adiponectin mRNA level in isolated epididymis adipose cells (RT-PCR, gel densitometry). The class given is cell-based, Wistar male rat. The conditions noted are these: for mRNA level: adiponectin mRNA, control (DMSO) defined as 1, cultured 24 hours at 37° C.; for adiponectin mRNA level in adipose tissue (result in words): conclusion from FIG. 1 and Table 5, 100 μM or 250 μM vs DMSO control. On the procedure:
A Wistar male rat (body weight of 160 g) was sacrificed and its epididymis adipose tissues were excised. The epididymis adipose tissues were placed in 0.5% bovine serum albumin (BSA)/30 mM HEPES/200 nM adenosine/Krebs Ringer bicarbonate buffer(BSA-KRBH) containing 1176 units/mL of collagenase (Sigma, type II), and allowed to stand at 37° C. for 90 minutes (hereunder, 0.5% BSA/30 mM HEPES/200 nM adenosine/Krebs Ringer bicarbonate buffer is referred to as BSA-KRBH). Adipose cells were isolated from the connective tissue by the above-described operation. The isolated adipose cells were then washed with BSA-KRBH four times, and the thus-obtained adipose cells were suspended in a BSA-KRBH culture medium.
Subsequently, to the thus-obtained suspension, a solution prepared by dissolving cyanidin (Cy; manufactured by Funakoshi Co., Ltd.) or cyanidin 3-O-β-D-glucoside (hereinafter, referred to as “cyanidin 3-glucoside”)(C3G; manufactured by Funakoshi Co., Ltd.) in DMSO was added in such a manner that the final concentration of cyanidin or cyanidin 3-glucoside was 100 μM or 250 μM. The resulting solutions were cultured under 5% CO2 at 37° C. for 24 hours, and the adipose cells were then collected.
Total RNAs were extracted from the thus-obtained adipose cell using an RNA extracting reagent (ISOGEN, manufactured by Nippon Gene Co., Ltd.) by following the instruction manual (http://www.nippongene.jp/pages/products/extraction/isogen/genol. html). Using the total RNAs as a template, a reverse transcription reaction was conducted at 37° C. for 120 minutes, and the RNAs were amplified by 20 cycles of PCR (RT-PCR (Reverse transcription-polymerase chain reaction) method). Specifically, 2.5 μg of total RNAs was subjected to reverse transcription in a buffer solution comprising oligo dT primer, 1.3 mM dNTP (deoxynucleoside triphosphates, GIBCO BRL, Grand Island, N.Y.), 10 mM DTT (dithiothreitol, GIBCO BRL), and 200 U of RNase inhibitor (GIBCO BRL) using 200 U of Moloney murine leukemia virus reverse transcriptase (GIBCO BRL) at 37° C. for 120 minutes, then allowed to stand at 94° C. for 2 minutes, and the reaction was terminated. The thus-generated cDNAs were amplified in a 0.01% Tween 20/0.2 mM dNTP/2 mM MgCl2/75 mM Tris buffer (pH 8.8) containing 1 μM 5′-primer([…]) and 3′-primer([…]), using 1.5 U of Taq DNA polymerase (MBI Fermentas, Lithuania) by repeating 20 cycles of PCR (each cycle comprised a denaturation step at 94° C. for 30 seconds, an annealing step. at 58° C. for 30 seconds, and an extension reaction step at 72° C. for 30 seconds), and then allowed to stand at 72° C. for 10 minutes.
The RT-PCR product (502 bp) was applied to a 1% agarose gel with DNA size markers, and subjected to electrophoresis in a Tris-Acetate-EDTA buffer at 100 V for about 30 minutes. After conducting electrophoresis, the gel was dipped in an ethidium bromide solution, shaken for 15 minutes, and then stained. Subsequently, the fluorescence intensity of the gel was measured using a gel analysis program (ATTO Lane Analyzer 10H Software Densitograph provided by Atto Corporation).
Note that, in FIG. 1, the control is epididymis adipose cells to which only DMSO was added.

Turning to `OCC1OC(Oc2cc3c(O)cc(O)cc3[o+]c2-c2ccc(O)c(O)c2)C(O)C(O)C1O` [Cyanidin 3-glucoside, cyanidin 3-O-β-D-glucoside], the “adiponectin mRNA level in adipose tissue (result in words)” value is reported as “increased adiponectin mRNA level”. Moreover, the mRNA level (100 μM) turned out to be 2.7. The mRNA level (250 μM) came to 2.1.
As to `Oc1cc(O)c2cc(O)c(-c3ccc(O)c(O)c3)[o+]c2c1` [Cyanidin, cyanidin], the “adiponectin mRNA level in adipose tissue (result in words)” value was “increased adiponectin mRNA level”. The compound also returned a mRNA level (100 μM) of 2.1. Also, for the setting “250 μM”, the mRNA level was found to be 2.2.
